Source: publication PMC9021288 (Nature Communications, 2022)
Values joined by “and” are separate entries in the source; they are usually repeats but may differ in a detail not shown here. Equal entries are not always repeated. Values belong to the molecule of their own block, whether it stands above or below them.

Assays:
[1] = system: P. falciparum Pf3D7^0087/N9; assay: Single dose in vivo efficacy in humanized NSG mice; design: species or system Plasmodium falciparum
Description: The effect of pantothenamides on P. falciparum Pf3D7^0087/N9 [66] in vivo was assessed in female NSG mice (NODscidIL2Rγ^null) at the Swiss Tropical and Public Health Institute (Basel, Switzerland) as described previously (Supplementary Table 30)[15],[67]. Briefly, humanized mice were engrafted daily with human erythrocyte suspensions from days -11 to day 6. […] On day 4, groups of n = 2 mice were treated with a single dose pantothenamides or chloroquine (50 mg/kg) by oral gavage. […] Serial dilutions were prepared in the same solvent to concentrations 50 times higher than the corresponding CAL and QC concentrations. The concentrations were calculated under consideration of purity and salt factor. The spiking of the CAL and QC sample were performed at room temperature.

P. falciparum 3D7 = assay: Parasite reduction rate (PRR) in vitro killing rate assay; type: cell-based, Plasmodium falciparum
Description: The antimalarial killing rate was determined by GlaxoSmithKline (GSK, Tres Cantos, Madrid, Spain) as described previously. […] The number of viable parasites was determined on day 21 and 28 by counting the wells with parasite growth.

HepG2 cells = assay: HepG2 viability (resazurin); conditions: human, 10 µM
Description: Safety studies were performed by commercial services using their standard protocols. […] Genotoxicity was investigated using the Ames test (Bacterial Reverse Mutation Assay) (Covance Laboratories Ltd, North Yorkshire, England). In vitro mammalian cell micronucleus screening assay was studied in human peripheral blood lymphocytes (BioReliance Corporation, Rockville, USA). Cardiotoxicity was determined against the hERG channel in an automated patch clamp assay using the Qpatch or against the hNaV 1.5, hKV 1.5 and hCaV 1.2 using a manual patch-clamp technique (Metrion Biosciences, Cambridge, UK). Cytotoxicity in human and rat primary hepatocytes was assessed using the CellTiter-Blue assay performed by commercial services (KaLy-Cell). The viability of HepG2 cells was monitored through the addition of 1 mM resazurin. Following 6 h incubation, the relative amount of reduced resazurin was detected in a fluorimeter and compared to the assay controls (vehicle: 0.1% DMSO and positive control: 10 µM puromycin).

[2] = system: cryopreserved human primary hepatocytes; assay: Human hepatocyte clearance (relay assay); conditions: 10 µM, single replicates
From the text: (§1) Briefly, cryopreserved human primary hepatocytes were thawed and cultured as described above.

[3] = Human hepatocyte clearance (relay assay); conditions: human
From the text: as §1

[4] = system: human G6PD-A-deficient RBCs; assay: Hemolytic toxicity in NSG mice engrafted with G6PD-deficient human RBCs; conditions: Primaquine group
Description: Hemolytic toxicity was determined in female NSG mice (Jackson Laboratories) using erythrocytes from a G6PD-A-deficient blood donor (0.4 u/g hemoglobin).

Structure (SMILES): CCN(CC)CCCC(C)Nc1ccnc2cc(Cl)ccc12 (stereo not shown) [CQ, chloroquine, reference compound]
- Parasitemia ([1]; day 5 post infection, 50 mg/kg p.o. on day 4, per mouse, 50 mg/kg): 0.12 and 0.07
- Parasitemia ([1]; day 6 post infection, per mouse): 0 and 0.01
- Parasitemia ([1]; day 7 post infection, per mouse): 0

Structure (SMILES): CCc1nc(N)nc(N)c1-c1ccc(Cl)cc1 [Pyrimethamine]
- Average (log parasites +1) (P. falciparum 3D7; 24 h): 4.95
- Average (log parasites +1) (P. falciparum 3D7; 48 h): 1.57
- Average (log parasites +1) (P. falciparum 3D7; 72h): 0.53
- Average (log parasites +1) (P. falciparum 3D7; 96h): 0.00
- log (parasites +1) (P. falciparum 3D7; 96h): 0
- parasites (P. falciparum 3D7; 96h): 0
- Average (log parasites +1) (P. falciparum 3D7; 120h): 0.00
- log (parasites +1) (P. falciparum 3D7; 120h): 0
- parasites (P. falciparum 3D7; 120h): 0

Structure (SMILES): COc1ccc(C[C@H](N)C(=O)N[C@H]2[C@@H](O)[C@H](n3cnc4c(N(C)C)ncnc43)O[C@@H]2CO)cc1 [puromycin]
- HepG2 viability assay, raw signal, MIN average (HepG2 cells): 764

- % Remaining ([2]; hepatocyte donor HC06, 3 h): 76.9%
- % Remaining ([2]; hepatocyte donor HC06, 6 h): 57.5%
- % Remaining ([2]; hepatocyte donor HC425, 6 h): 78.5%
- % Remaining ([2]; hepatocyte donor HC425, 24 h): 39.0%
- % Remaining ([2]; hepatocyte donor HC425, 48 h): 22.9%
- % Remaining ([2]; hepatocyte donor HC425, 72 h): 4.8%
- % Remaining ([2]; hepatocyte donor HC1010, 3 h): 50.4%
- % Remaining ([2]; hepatocyte donor HC1010, 6 h): 26.9%
- remaining at 0 h, 10 µM ([3]; % Remaining, 10 µM, hepatocyte donor HC02, 0 h, single replicates): 100%
- remaining at 6 h, 10 µM ([3]; % Remaining, 10 µM, hepatocyte donor HC02, 6 h, single replicates): 2.2%
- remaining at 0 h, 10 µM ([3]; % Remaining, 10 µM, hepatocyte donor HC06, 0 h, single replicates): 100%
- remaining at 3 h, 10 µM ([3]; % Remaining, 10 µM, hepatocyte donor HC06, 3 h, single replicates): 80.9%
- remaining at 6 h, 10 µM ([3]; % Remaining, 10 µM, hepatocyte donor HC06, 6 h, single replicates): 56.3%
- remaining at 0 h, 10 µM ([3]; % Remaining, 10 µM, hepatocyte donor HC425, 0 h, single replicates): 100%
- remaining at 6 h, 10 µM ([3]; % Remaining, 10 µM, hepatocyte donor HC425, 6 h, single replicates): 72.1%
- remaining at 24 h, 10 µM ([3]; % Remaining, 10 µM, hepatocyte donor HC425, 24 h, single replicates): 33.1%
- remaining at 0 h, 10 µM ([3]; % Remaining, 10 µM, hepatocyte donor HC1010, 0 h, single replicates): 100%
- remaining at 3 h, 10 µM ([3]; % Remaining, 10 µM, hepatocyte donor HC1010, 3 h, single replicates): 46.7%
- remaining at 6 h, 10 µM ([3]; % Remaining, 10 µM, hepatocyte donor HC1010, 6 h, single replicates): 29.5%
- remaining at 24 h, 10 µM ([3]; % Remaining, 10 µM, hepatocyte donor HC1010, 24 h, single replicates): 2%
- remaining at 48 h, 10 µM ([3]; cryopreserved human primary hepatocytes (relay assay), % Remaining, 10 µM, hepatocyte donor HC425, 48 h, single replicates): 25.4%
- remaining at 72 h, 10 µM ([3]; cryopreserved human primary hepatocytes (relay assay), % Remaining, 10 µM, hepatocyte donor HC425, 72 h, single replicates): 8.2%
- hepatocyte CLint ([3]; cryopreserved human primary hepatocytes (relay assay), CLint, donor HC02): 21.2 µL/min/1e6 cells
- hepatocyte CLint ([3]; cryopreserved human primary hepatocytes (relay assay), CLint, donor HC06): 3.14 µL/min/1e6 cells
- hepatocyte CLint at 10 µM ([3]; cryopreserved human primary hepatocytes (relay assay), CLint, donor HC425): 1.19 µL/min/1e6 cells
- hepatocyte CLint ([3]; cryopreserved human primary hepatocytes (relay assay), CLint, donor HC1010): 6.28 µL/min/1e6 cells
Structure (SMILES): CCOc1ccc2ccc(=O)oc2c1 [7-Ethoxycoumarin]

- remaining at 0 h, 10 µM ([3]; hepatocytes, % Remaining): 100%
- remaining at 3 h, 10 µM ([3]; hepatocytes, % Remaining): 98.8%
Structure (SMILES): CCCCNC(=O)NS(=O)(=O)c1ccc(C)cc1 [Tolbutamide]

Structure (SMILES): COc1cc(NC(C)CCCN)c2ncccc2c1 (stereo not shown) [Primaquine]
- Human RBCs ([4]; day 0, individual mice): 74.3% and 71.3% and 74.2% and 65%
- Reticulocytes ([4]; day 0, individual mice): 0.41% and 0.56% and 0.49% and 0.54%
- Human RBCs ([4]; day 4, individual mice): 54.6% and 45.9% and 58.7% and 49.1%
- Reticulocytes ([4]; day 4, individual mice): 5.2% and 2.88% and 7.64% and 5.35%
- Human RBCs ([4]; day 7, individual mice): 13.5% and 5.35% and 9.52% and 4.33%
- Reticulocytes ([4]; day 7, individual mice): 4.47% and 5.69% and 5.07% and 8.31%
- Hematocrit ([4]; individual mice): 31.37% and 28.81% and 29.69% and 29.51%
- Spleen weight ([4]; individual mice): 1.219 % of body weight and 1.099 % of body weight and 1.08 % of body weight and 1.161 % of body weight
